Assay results from article PMC6133092, “Synthesis of 2-alkylthio-N-(quinazolin-2-yl)benzenesulfonamide derivatives: anticancer activity, QSAR studies, and metabolic stability” (Monatshefte Fur Chemie, 2018).

Assays:
HCT-116 (colon cancer) = experiment: MTT cell viability assay, HCT-116; assay type: cell-based; conditions: Homo sapiens, 72 h, mean ± SD
Method: (§1) All chemicals, if not stated otherwise, were obtained from Sigma-Aldrich (St. Louis, MO, USA). The MCF-7 and HeLa cell lines were purchased from Cell Lines Services (Eppelheim, Germany), the HCT-116 cell line was purchased from ATCC (ATCC-No: CCL-247). Cells were cultured in Dulbecco’s modified Eagle’s medium (DMEM) supplemented with 10% fetal bovine serum, 2 mM glutamine, 100 units/cm^3 penicillin, and 100 μg/cm^3 streptomycin. Cultures were maintained in a humidified atmosphere with 5% CO2 at 37 °C in an incubator (Heraceus, HeraCell).
(§2) Cell viability was determined using the MTT (3-(4,5-dimethylthiazol-2-yl)-2,5-diphenyltetrazolium bromide) assay. Cells were seeded in 96-well plates at a density of 5 × 10^3 cells/well and treated for 72 h with the examined compounds in the concentration range 1–100 μM (1, 10, 25, 50, and 100 μM). Following treatment, MTT (0.5 mg/cm^3) was added to the medium and cells were further incubated for 2 h at 37 °C. Cells were lysed with DMSO and the absorbance of the formazan solution was measured at 550 nm with a plate reader (Victor, 1420 multilabel counter). […] The experiment was performed in triplicate. Values are expressed as the mean ± SD of at least three independent experiments.

HeLa (cervical cancer) = experiment: MTT cell viability assay, HeLa; assay type: cell-based; conditions: Homo sapiens
Method: as §1, §2

MCF-7 (breast cancer) = experiment: MTT cell viability assay, MCF-7; assay type: cell-based, human; conditions: Homo sapiens, MCF7, 72 h, mean ± SD
Method: All of the newly synthesized compounds 9–24 were evaluated for their effects on cell viability in three human cancer cell lines: HCT-116 (colon cancer), HeLa (cervical cancer), and MCF-7 (breast cancer). Cisplatin was used as reference drug. […] Considering the activity of derivatives 9–12, 15, 17, 18, and 21–24, it can be noticed that phenyl group as R^3 bring an increase of cytotoxicity in comparison with methyl in place of R^3. However, this impact seems to be the most important for compounds with the bulky group in R^1 and generally, it is less for a set of derivatives with methyl group substituted in R^1 (9–12).
as §1, §2

MOLT-4 = experiment: NCI-60 single dose screen, MOLT-4; assay type: cell-based; conditions: Homo sapiens, Leukemia, single concentration 10^−5 M, read-out: IGP (inhibition growth percent) MOLT-4
Method: (§3) Aside from above, compounds 9–14 and 17–24 were also submitted to National Cancer Institute and evaluated for the cytotoxic effects toward 60 cell lines at a single dose of 10 μM (Table 2). […] As it was summarized in Table 2, leukemia RPMI-8226 and NSCLC A549/ATCC were most sensitive to compounds 18, 22, and 24. These derivatives in 10 μM concentration inhibited the growth of approximately 50% cells belonging to the above mention cell lines.
(§4) Cytotoxicity evaluation of compounds 9–14 and 17–24 was performed at the National Cancer Institute according to NCI-60 DTP human tumor cell line screen procedure.

RPMI-8226 = experiment: NCI-60 single dose screen, RPMI-8226; assay type: cell-based; conditions: Homo sapiens, RPMI-8226, Leukemia; single concentration 10^−5 M; read-out: IGP (inhibition growth percent) RPMI-8226
Method: as §3, §4

SR = experiment: NCI-60 single dose screen, SR; assay type: cell-based; conditions: Homo sapiens, Leukemia, single concentration 10^−5 M, read-out: IGP (inhibition growth percent) SR
Method: as §3, §4

EKVX = experiment: NCI-60 single dose screen, EKVX; assay type: cell-based; conditions: Homo sapiens, NSCLC, single concentration 10^−5 M, read-out: IGP (inhibition growth percent) EKVX
Method: as §3, §4

HOP-92 = experiment: NCI-60 single dose screen, HOP-92; assay type: cell-based; conditions: Homo sapiens, NSCLC, single concentration 10^−5 M, read-out: IGP (inhibition growth percent) HOP-92
Method: as §3, §4

HCT-116 = experiment: NCI-60 single dose screen, HCT-116; assay type: cell-based; conditions: Homo sapiens, Colon cancer, single concentration 10^−5 M, read-out: IGP (inhibition growth percent) HCT-116
Method: as §3, §4

UO-31 = experiment: NCI-60 single dose screen, UO-31; assay type: cell-based; conditions: Homo sapiens, Renal cancer, single concentration 10^−5 M, read-out: IGP (inhibition growth percent) UO-31
Method: as §3, §4

[1] = Metabolic stability in human liver microsomes with NADPH; assay type: in vitro ADME; conditions: pooled human liver microsomes, pH 7.4, human liver microsomes 0.5 mg/cm^3, NADPH 1 mM, 10 μM compound, 37 °C, read-out: in vitro metabolic half-life t1/2
Method: Selected derivatives were submitted to metabolic stability study to assess their ability to remain unchanged in the presence of human metabolic enzymes. Human liver microsomes were used as they are a rich source of all common CYP isoenzymes. In vitro incubations were performed in the presence of NADPH as a cofactor and the disappearance of a derivative was followed using LC–MS technique. The in vitro metabolic half-life values are gathered in Fig. 3.
Stock solutions of studied compounds were prepared at concentration of 10 mM in DMSO. […] Incubation mixture contained 10 μM of a studied derivative, 1 mM of NADPH (Sigma-Aldrich) and 0.5 mg/cm^3 of pooled human liver microsomes (HLM, Sigma-Aldrich) in potassium phosphate buffer (0.1 M, pH 7.4). Incubation was carried out in thermostat at 37 °C and started by addition of studied compound. 50 mm^3 samples were taken at starting point and after 5, 15, 30, 45, and 60 min. Enzymatic reaction was terminated by the addition of the equal volume of ice-cold acetonitrile. Incubations were performed in triplicates, the average t1/2 and standard deviation was calculated. Control incubations were performed without NADPH to assess chemical instability. After collection, samples were immediately centrifuged (10 min, 10,000 rpm) and resulted supernatant was directly analyzed or kept in − 80 °C until LC–MS analysis. Natural logarithm of a compound over IS peak area ratio was plotted versus incubation time. Metabolic half-time (t1/2) was calculated from the slope of the linear regression.
LC–MS analysis was performed on an Agilent 1260 system coupled to SingleQuad 6120 mass spectrometer (Agilent Technologies, Santa Clara, CA, USA). Poroshell EC-C18 (2.1 mm × 150 mm, 2.7 μm, Agilent Technologies, Santa Clara, CA, USA) was used in reversed-phase mode with gradient elution starting with 5% of phase A (10 mM ammonium formate in water) and 95% of phase B (10 mM ammonium formate in acetonitrile–water mixture, 95:5 v/v). […] Total analysis time was 15 min at 40 °C, flow rate was 1 cm^3/min and the injection volume was 5 mm^3. The mass spectrometer was equipped with electrospray ion source and operated in positive ionization. Mass analyzer was set individually to each compound to detect [M+H]^+ protonated molecule. MSD parameters of the ESI source were as follows: nebulizer pressure 35 psig (N2), drying gas […] (N2), drying gas temperature 300 °C, capillary voltage 3 kV, fragmentor voltage 150 V.

[2] = Table 4, repeats Table 1 values without SD and unit

Compound	IC50 (HCT-116 (colon cancer)) [µM]	IC50 (HeLa (cervical cancer); MTT, 72 h, mean ± SD) [µM]	IC50 (MCF-7 (breast cancer)) [µM]	inhibition at 10 µM (MOLT-4) [%]	inhibition at 10 µM (RPMI-8226) [%]	inhibition at 10 µM (SR) [%]	inhibition at 10 µM (EKVX) [%]	inhibition at 10 µM (HOP-92) [%]	inhibition at 10 µM (HCT-116) [%]	inhibition at 10 µM (UO-31) [%]	half-life at 10 μM [1] [min]	IC50 (HeLa (cervical cancer); [2]) [µM]
Cc1ccc(NC(=O)c2cc(S(=O)(=O)Nc3nc(-c4ccccc4)c4ccccc4n3)c(SCc3ccccc3)cc2Cl)cc1 [Compound 24, 2-Benzylthio-4-chloro-5-(4-methylphenylcarbamoyl)-N-(4-phenylquinazolin-2-yl)benzenesulfonamide]	41 ± 1	44 ± 3	52 ± 3	21	~50	23	45	26	44	25	42.3	–
O=C(Nc1ccc(Cl)cc1)c1cc(S(=O)(=O)Nc2nc(-c3ccccc3)c3ccccc3n2)c(SCc2ccccc2)cc1Cl [Compound 22, 2-Benzylthio-4-chloro-5-(4-chlorophenylcarbamoyl)-N-(4-phenylquinazolin-2-yl)benzenesulfonamide]	39 ± 1	42 ± 0.5	53 ± 1	52	~50	40	28	34	39	35	67.2	42
O=C(Nc1ccccc1)c1cc(S(=O)(=O)Nc2nc(-c3ccccc3)c3ccccc3n2)c(SCc2ccccc2)cc1Cl [Compound 18, 2-Benzylthio-4-chloro-5-phenylcarbamoyl-N-(4-phenylquinazolin-2-yl)benzenesulfonamide]	42 ± 1	46 ± 2	46 ± 1	36	~50	28	35	26	31	3	11.2	46
